The values that follow come from ChEMBL document CHEMBL1201862, “PubChem BioAssay data set” (2004).

Among the test systems are TK-10; SR; Malme-3M; OVCAR-4; KM12; MOLT-4; A498; T47D; UACC-257; DU-145; SF-539; SW-620; LOX IMVI; OVCAR-8; PC-3; HOP-62; Hs-578T; SK-OV-3.
Assay in all cases: NCI tumour cell line growth inhibition, 48 h

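Cultured in 96-well plates, cells were exposed to test compound for 48 hours across five concentrations. At the GI50, growth is halved.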 The source made the active and inactive calls. No stated cut-off is given here; in the data, active = GI50 up to about 1.1 µM and inactive = higher.

On to `Cc1ccc(C)c(C2NC(=O)c3ccccc3N2)c1` (stereo unspecified), for which the GI50 with TK-10 was 6.82 µM (inactive); with SR, 0.555 µM (active); in the experiment on Malme-3M, 0.668 µM (active); in the experiment on OVCAR-4, 6.27 µM (inactive); in the experiment on KM12 it was 2.99 µM (inactive); with MOLT-4 it was 0.506 µM (active). Further, the GI50 is 3.62 µM (inactive) with A498; 2.72 µM (inactive) with T47D; 12 µM (inactive) with UACC-257; 2.56 µM (inactive) with DU-145; 0.587 µM (active) in the experiment with SF-539; 0.472 µM (active) in the experiment with SW-620. The GI50 is 2.05 µM (inactive) with LOX IMVI; 4.31 µM (inactive) with OVCAR-8; 1.06 µM (active) in the experiment with PC-3; 1.93 µM (inactive) with HOP-62; 1.09 µM (active) with Hs-578T; 2.02 µM (inactive) with SK-OV-3.
For `C/C(=C1/N=C(c2ccccc2)OC1=O)c1ccccc1`, the GI50 is 87.3 µM (inactive) in the experiment on TK-10; 39.5 µM (inactive) with SR; 53.2 µM (inactive) in the experiment on Malme-3M; > 100 µM (inactive) in the experiment with OVCAR-4; 61.4 µM (inactive) in the experiment with KM12; 95.1 µM (inactive) in the experiment on MOLT-4. Also, the GI50 in the experiment with A498 was > 100 µM (inactive); in the experiment with T47D, > 100 µM (inactive); with UACC-257, > 100 µM (inactive); with DU-145 it was > 100 µM (inactive); in the experiment on SF-539 it was 48.6 µM (inactive); in the experiment with SW-620, 57.5 µM (inactive). Besides, the GI50 with LOX IMVI is 33.5 µM (inactive); in the experiment with OVCAR-8 it was > 100 µM (inactive); in the experiment with PC-3, > 100 µM (inactive); in the experiment on HOP-62, > 100 µM (inactive); with Hs-578T, 46.3 µM (inactive); with SK-OV-3 it was > 100 µM (inactive).
Regarding `COc1ccc2nc3cccc([N+](=O)[O-])c3c(NCCO)c2c1`, the GI50 with TK-10 is 0.0336 µM (active); in the experiment with SR it was 0.001 µM (active); in the experiment with Malme-3M it was 0.016 µM (active); in the experiment with OVCAR-4, 0.0386 µM (active); in the experiment with KM12, 0.0255 µM (active); with MOLT-4 it was 0.0255 µM (active). Also, the GI50 with A498 is 0.0507 µM (active); in the experiment with T47D, 0.141 µM (active); in the experiment with UACC-257, 0.0277 µM (active); in the experiment with DU-145, 0.011 µM (active); in the experiment on SF-539 it was 0.0182 µM (active); in the experiment with SW-620, 0.00164 µM (active). In addition, the GI50 with LOX IMVI was 0.00149 µM (active); with OVCAR-8, 0.0083 µM (active); in the experiment with PC-3, 0.0232 µM (active); with HOP-62, 0.0208 µM (active); in the experiment with Hs-578T it was 0.0169 µM (active); in the experiment on SK-OV-3 it was 0.185 µM (active).
For `CC(C)(Br)C(=O)/C=C/c1ccccc1`, the GI50 with TK-10 is 10.6 µM (inactive); with SR, 1.98 µM (inactive); in the experiment on Malme-3M it was 2.62 µM (inactive); in the experiment on OVCAR-4 it was 2.3 µM (inactive); in the experiment with KM12 it was 13.1 µM (inactive); with MOLT-4, 1.41 µM (inactive). For the same molecule, the GI50 is 18.7 µM (inactive) in the experiment with A498; 2.47 µM (inactive) with T47D; 14.1 µM (inactive) in the experiment with UACC-257; 5.71 µM (inactive) in the experiment with DU-145; 8.13 µM (inactive) with SF-539; 2.39 µM (inactive) in the experiment with SW-620. Moreover, the GI50 was 1.32 µM (inactive) in the experiment on LOX IMVI; 2.13 µM (inactive) in the experiment on OVCAR-8; 7.69 µM (inactive) in the experiment on PC-3; 4.58 µM (inactive) in the experiment with HOP-62; 11.5 µM (inactive) in the experiment with Hs-578T; 25.6 µM (inactive) with SK-OV-3.
On to `COc1cc(OC)c(/C=N/N=C(\N)NO)c(OC)c1`, for which the GI50 in the experiment on TK-10 was > 100 µM (inactive); in the experiment with SR it was 63.5 µM (inactive); with Malme-3M, > 100 µM (inactive); with OVCAR-4 it was > 100 µM (inactive); in the experiment on KM12 it was 0.787 µM (active); in the experiment with MOLT-4 it was > 100 µM (inactive). Further, the GI50 is > 100 µM (inactive) in the experiment with A498; > 100 µM (inactive) with T47D; > 100 µM (inactive) with UACC-257; 85.5 µM (inactive) with DU-145; > 100 µM (inactive) with SF-539; > 100 µM (inactive) in the experiment with SW-620. The GI50 is > 100 µM (inactive) in the experiment on LOX IMVI; > 100 µM (inactive) in the experiment on OVCAR-8; > 100 µM (inactive) with PC-3; 55.8 µM (inactive) in the experiment on HOP-62; > 100 µM (inactive) in the experiment with Hs-578T; > 100 µM (inactive) in the experiment on SK-OV-3.
In the case of `CC1OC(O)CC(N(C)C)C1O.CC1OC(O)CCC1O.CCC1CC(O)c2c(O)c3c(c(O)c2C1O)C(=O)c1cccc(O)c1C3=O` (stereo unspecified), the GI50 in the experiment on TK-10 is 0.0208 µM (active); in the experiment on SR, 0.0083 µM (active); with Malme-3M it was 0.021 µM (active); with OVCAR-4, 0.0203 µM (active); with KM12, 0.0209 µM (active); in the experiment on MOLT-4 it was 0.0284 µM (active). Moreover, the GI50 in the experiment on A498 is 0.0114 µM (active); in the experiment on T47D it was 0.0242 µM (active); in the experiment with UACC-257, 0.0342 µM (active); in the experiment with DU-145, 0.0333 µM (active); in the experiment on SF-539, 0.0373 µM (active); in the experiment on SW-620, 0.014 µM (active). Further, the GI50 was 0.0135 µM (active) in the experiment on LOX IMVI; 0.0211 µM (active) in the experiment with OVCAR-8; 0.0177 µM (active) in the experiment with PC-3; 0.034 µM (active) in the experiment with HOP-62; 0.0507 µM (active) in the experiment on Hs-578T; 0.033 µM (active) with SK-OV-3.
As to `O=C1CCCCc2cccc(O)c21`, the GI50 with TK-10, in the experiment with SR, in the experiment with Malme-3M, with OVCAR-4, in the experiment on KM12 and in the experiment with MOLT-4 was > 100 µM (inactive) in each case. Further, the GI50 in the experiment with A498, with T47D, with UACC-257, in the experiment with DU-145, with SF-539 and with SW-620 was > 100 µM (inactive) each time. Further, the GI50 with LOX IMVI, in the experiment on OVCAR-8, with PC-3, with HOP-62, in the experiment on Hs-578T and in the experiment with SK-OV-3 was > 100 µM (inactive) each time.
On to `COc1ccc(C(SCCO)(c2ccc(OC)cc2)c2ccc(OC)cc2)cc1`, for which the GI50 in the experiment with TK-10 is 21.8 µM (inactive); in the experiment on SR it was 3.4 µM (inactive); with Malme-3M, 17.6 µM (inactive); with OVCAR-4, 21.6 µM (inactive); in the experiment with KM12 it was 15.3 µM (inactive); in the experiment on MOLT-4, 10.9 µM (inactive). In addition, the GI50 was 17.8 µM (inactive) with A498; 6.03 µM (inactive) in the experiment with T47D; 13.5 µM (inactive) in the experiment on UACC-257; 23.4 µM (inactive) in the experiment with DU-145; 14.4 µM (inactive) with SF-539; 15 µM (inactive) in the experiment with SW-620. Further, the GI50 was 14 µM (inactive) with LOX IMVI; 14.9 µM (inactive) in the experiment with OVCAR-8; 13.8 µM (inactive) with PC-3; 16.4 µM (inactive) in the experiment on HOP-62; 17.2 µM (inactive) with Hs-578T; 29.1 µM (inactive) with SK-OV-3.
For the molecule `CCOC(=O)NNC(=O)NCc1cccc(CNC(=O)NNC(=O)OCC)c1`, the GI50 with TK-10, in the experiment with SR, in the experiment on Malme-3M, in the experiment on OVCAR-4, in the experiment on KM12 and in the experiment with MOLT-4 was > 100 µM (inactive) each time. In addition, the GI50 with A498, in the experiment with T47D, in the experiment on UACC-257, in the experiment with DU-145, in the experiment on SF-539 and with SW-620 was > 100 µM (inactive) in each case. The GI50 in the experiment on LOX IMVI, in the experiment with OVCAR-8, with PC-3, in the experiment on Hs-578T and in the experiment on SK-OV-3 was > 100 µM (inactive) each time.
Regarding `O=C(CCCN1CCC2(CC1)OC(=O)N(c1ccccc1)C2=O)c1ccccc1`, the GI50 in the experiment on TK-10, in the experiment on SR, in the experiment on Malme-3M, in the experiment on OVCAR-4, in the experiment on KM12 and with MOLT-4 was > 100 µM (inactive) each time. Also, the GI50 in the experiment with A498, in the experiment with T47D, with UACC-257, with DU-145, in the experiment with SF-539 and in the experiment on SW-620 was > 100 µM (inactive) each time. For the same molecule, the GI50 in the experiment on LOX IMVI, in the experiment with OVCAR-8, in the experiment with PC-3, with HOP-62, in the experiment with Hs-578T and in the experiment on SK-OV-3 was > 100 µM (inactive) throughout.
Regarding `CC(C)(C)OC(=O)NC(Cc1ccc([N+](=O)[O-])cc1)C(=O)NC(CCCCNC(=O)OCc1ccccc1)C(=O)ON1C(=O)CCC1=O` (stereo unspecified), the GI50 in the experiment on TK-10 is > 100 µM (inactive); in the experiment with SR, 49.4 µM (inactive); with Malme-3M, > 100 µM (inactive); with OVCAR-4 it was > 100 µM (inactive); in the experiment on KM12, > 100 µM (inactive); in the experiment with MOLT-4, 57.9 µM (inactive). In addition, the GI50 in the experiment with A498 was > 100 µM (inactive); with T47D, > 10 µM (inactive); in the experiment with DU-145, > 100 µM (inactive); with SF-539, > 100 µM (inactive); in the experiment with SW-620, 26.7 µM (inactive); with LOX IMVI, 28.8 µM (inactive). In addition, the GI50 in the experiment with OVCAR-8 was > 100 µM (inactive); in the experiment with PC-3 it was 52.5 µM (inactive); in the experiment with HOP-62 it was > 100 µM (inactive); in the experiment on Hs-578T, > 100 µM (inactive); in the experiment with SK-OV-3, > 100 µM (inactive).
